These are literature values, as cited in patent US7998710B2, “Process for purifying difructose dianhydride III” (Nippon Beet Sugar Mfg., Co., Ltd., priority 2003, dated 2011).

Molecules are shown by their SMILES.

For series [1] the following is noted: relative to sucrose.
For series [2], the system named is absorption of minerals such as Ca. Particulars: Patent Document 1.

Take `OC[C@H]1O[C@@]2(CO[C@]3(CO)O[C@H](CO)[C@@H](O)[C@@H]3O2)[C@@H](O)[C@@H]1O` [DFA III, α-D-fructofuranose-β-D-fructofuranose-2′,1:2,3′-dianhydride]: the “solubility in water compared with that of sucrose” value in series [1] is 90-95%. Besides, the “effect of promoting the absorption of minerals such as Ca” value in series [2] is given as “promoting the absorption of minerals such as Ca”.
